Data published in ChEMBL document CHEMBL1201862, “PubChem BioAssay data set” (2004).
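Step 1: Grow cells in 96-well plates. Step 2: Expose to compound for 48 hours at 5 concentrations. Step 3: Interpolate endpoints linearly; if unreached, use highest concentration. GI50 marks 50% less growth.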 Active and inactive are the calls of the source. Rule as the data show it: active = GI50 up to about 1.1 µM and inactive = higher.

Assays:
Experiment in all cases: NCI-60 cell line screen, 48 h
A549 = tested on: A549
CAKI-1 = tested on: CAKI-1
DU-145 = tested on: DU-145
EKVX = tested on: EKVX
HOP-92 = tested on: HOP-92
HT-29 = tested on: HT-29
MOLT-4 = tested on: MOLT-4
Malme-3M = tested on: Malme-3M
NCI-H226 = tested on: NCI-H226
NCI-H460 = tested on: NCI-H460
NCI-H522 = tested on: NCI-H522
NCI/ADR-RES = tested on: NCI/ADR-RES
OVCAR-3 = tested on: OVCAR-3
OVCAR-8 = tested on: OVCAR-8
SF-268 = tested on: SF-268
SK-MEL-28 = tested on: SK-MEL-28
SN12C = tested on: SN12C
SNB-19 = tested on: SNB-19
SW-620 = tested on: SW-620
TK-10 = tested on: TK-10

| SMILES | GI50 (A549) | GI50 (CAKI-1) | GI50 (DU-145) | GI50 (EKVX) | GI50 (HOP-92) | GI50 (HT-29) | GI50 (MOLT-4) | GI50 (Malme-3M) | GI50 (NCI-H226) | GI50 (NCI-H460) | GI50 (NCI-H522) | GI50 (NCI/ADR-RES) | GI50 (OVCAR-3) | GI50 (OVCAR-8) | GI50 (SF-268) | GI50 (SK-MEL-28) | GI50 (SN12C) | GI50 (SNB-19) | GI50 (SW-620) | GI50 (TK-10) |
| --- | --- | --- | --- | --- | --- | --- | --- | --- | --- | --- | --- | --- | --- | --- | --- | --- | --- | --- | --- | --- |
| CN(CCCN=C=S)CCCN1c2ccccc2CCc2ccccc21 | 1.71 µM (inactive) | 1.73 µM (inactive) | 1.83 µM (inactive) | 1.88 µM (inactive) | 2.07 µM (inactive) | 1.51 µM (inactive) | 0.611 µM (active) | 1.99 µM (inactive) | 2.04 µM (inactive) | 1.82 µM (inactive) | 1.95 µM (inactive) | 1.29 µM (inactive) | 1.66 µM (inactive) | 1.78 µM (inactive) | 1.71 µM (inactive) | 2.06 µM (inactive) | 1.69 µM (inactive) | 1.72 µM (inactive) | 2.23 µM (inactive) | 1.82 µM (inactive) |
| CN1CCC2(CC1)SC[C@H]1C(=O)N(c3ccc(Cl)cc3)C(=O)N12 | > 100 µM (inactive) | > 100 µM (inactive) | > 100 µM (inactive) | > 100 µM (inactive) | > 100 µM (inactive) | > 100 µM (inactive) | > 100 µM (inactive) | > 100 µM (inactive) | > 100 µM (inactive) | > 100 µM (inactive) | > 100 µM (inactive) | > 100 µM (inactive) | > 100 µM (inactive) | > 100 µM (inactive) | > 100 µM (inactive) | > 100 µM (inactive) | > 100 µM (inactive) | > 100 µM (inactive) | > 100 µM (inactive) | > 100 µM (inactive) |
| C=C(CBr)CCCOCc1ccccc1 | 38.4 µM (inactive) | 5.6 µM (inactive) | 39.1 µM (inactive) | 22.9 µM (inactive) | 21.6 µM (inactive) | 21.2 µM (inactive) | 30.8 µM (inactive) | 20.7 µM (inactive) | 15.5 µM (inactive) | 18.1 µM (inactive) | 22.3 µM (inactive) | 20.2 µM (inactive) | 19.1 µM (inactive) | 17 µM (inactive) | 15.8 µM (inactive) | 40.9 µM (inactive) | 24.5 µM (inactive) | 15.6 µM (inactive) | 32.7 µM (inactive) | 16.7 µM (inactive) |
| COC(=O)C1CCC(=O)N1C(c1ccc(OC)cc1)c1ccc2c(c1)OCO2 (stereo not given) | 47.5 µM (inactive) | 62.8 µM (inactive) | > 100 µM (inactive) | > 100 µM (inactive) | > 100 µM (inactive) | 34.9 µM (inactive) | 36.3 µM (inactive) | 45.5 µM (inactive) | 67.3 µM (inactive) | 40.4 µM (inactive) | 22.4 µM (inactive) | 33.3 µM (inactive) | 50.8 µM (inactive) | 48.9 µM (inactive) | 53.6 µM (inactive) | 57.1 µM (inactive) | 57.9 µM (inactive) | 37.2 µM (inactive) | 33.5 µM (inactive) | > 100 µM (inactive) |
| Cc1ccc(/C=N/n2c(Cc3ccccc3)n[nH]c2=O)cc1 | > 100 µM (inactive) | 28.6 µM (inactive) | > 100 µM (inactive) | > 100 µM (inactive) | 37 µM (inactive) | > 100 µM (inactive) | > 100 µM (inactive) | > 100 µM (inactive) | > 100 µM (inactive) | > 100 µM (inactive) | > 100 µM (inactive) | > 100 µM (inactive) | > 100 µM (inactive) | > 100 µM (inactive) | > 100 µM (inactive) | > 100 µM (inactive) | > 100 µM (inactive) | > 100 µM (inactive) | > 100 µM (inactive) | > 100 µM (inactive) |
| Clc1ccc(Cc2nc3cc(Cl)c(Cl)cc3n2CC2CCCN3CCCCC23)cc1Cl (stereo not given) | 4.93 µM (inactive) | 3.46 µM (inactive) | 4.79 µM (inactive) | 3.28 µM (inactive) | 5.38 µM (inactive) | 2.43 µM (inactive) | 4.34 µM (inactive) | 1.79 µM (inactive) | 7.16 µM (inactive) | 3.1 µM (inactive) | 1.74 µM (inactive) | 4.46 µM (inactive) | 16 µM (inactive) | 6.32 µM (inactive) | 3.32 µM (inactive) | 2.99 µM (inactive) | 4.13 µM (inactive) | 2.9 µM (inactive) | 1.48 µM (inactive) | 6.05 µM (inactive) |
